Assay results taken from patent US20090298936A1, “METHOD FOR ENERGIZING HUMAN BEINGS” (SYMRISE GmbH & Co. KG, priority 2008, published 2009).
Several values for one entry are separate records, joined by “and”; a condition that tells them apart may be missing. Equal entries are not always repeated.

Tested on: healthy human subjects (panelists)
Test: Sniff test with heartbeat measurement (finger clip Heart Rhythm Monitor, Freeze-Framer 2.0) on human panelists
Assay type: in vivo
Conditions: for energizing effect compared with Amarocite and the mixtures: solution in mineral oil
Description: In order to introduce compounds of group (a) or a sensory complex as described above into the nasal cavity that will occur using many types of products containing the sensory complex the following method of human testing and data collection was developed, standardized and used to collect and analyze data to substantiate the energizing effects of the sensory complex materials in group (a).
Data collection and analysis of each panelists's heart rate was made using a finger clip attachment for the Heart Rhythm Monitor using Freeze-Framer® 2.0 software from HeartMath®, 14700 West Park Avenue, Boulder Creek, Calif.
The test is divided into 3 parts: • 1) the pre-sniff-test period: places the panelist in a neutral state (15 min), • 2) the sniff-test period (5 min), • 3) the post-sniff-test period (10 min). Typically during each test session, three fragrances (single compound or mixture of compounds) are presented to the panelist, so one test lasts for one hour.

In the case of `COC(OC)C(C)(C)CC=C(C)C` [Amarocite ®, 1,1-dimethoxy-2,2,5-trimethyl-4-hexene], the “Heartbeat (bpm) After” value (individual panelists A-G, after inhalation, 1 wt.-% solution in mineral oil) is reported as 77 bpm and 81 bpm and 70 bpm and 78 bpm and 72 bpm and 71 bpm and 90 bpm, the “Heartbeat (bpm) Difference” value (individual panelists A-G, after minus before, 1 wt.-% solution in mineral oil) is reported as “+9 bpm and +25 bpm and +6 bpm (2×) and +10 bpm and +12 bpm (2×)” and the “Heartbeat (bpm) Before” value (individual panelists A-G, before inhalation (baseline), 1 wt.-% solution in mineral oil) is reported as 68 bpm (2×) and 56 bpm and 64 bpm and 60 bpm and 59 bpm and 84 bpm. The “Heartbeat (bpm) After, Mean” value (mean of panelists A-G, after inhalation, 1 wt.-% solution in mineral oil) was 77 bpm, the “Heartbeat (bpm) Difference, Mean” value (mean of panelists A-G, after minus before, 1 wt.-% solution in mineral oil) was “+11.4 bpm” and the “Heartbeat (bpm) Before, Mean” value (mean of panelists A-G, before inhalation (baseline), 1 wt.-% solution in mineral oil) was 65.6 bpm. For the same compound, the “average heart rate increase” value (panelists, administered according to the protocol) was 17.3%.

In the case of `CC(C)CCCC(C)CCO` (stereo not drawn) [tetrahydrogeraniol], the “energizing effect compared with Amarocite and the mixtures” value (0.8 wt.-% alone) is reported as “Stronger energizing effects”.

`CCCCCC1C(=O)CCC1CC(=O)OC` (stereo not drawn) [methyl dihydro jasmonate] was tested, and the “energizing effect compared with Amarocite and the mixtures” value (2.0 wt.-% alone) was “Stronger energizing effects”.
